Several values for one entry are separate records, joined by “and”; a condition that tells them apart may be missing. Identical values can stand only once. Like-named read-outs stand apart in the source and are kept apart here.
How the values were obtained:
CRM1 = CRM1 (Homo sapiens, UniProt O14980); assay: Nuclear export inhibition, fluorescent translocation biosensor in recombinant HeLa cells; type: cell-based; parameters: This cellular assay uses HeLa cells that express a recombinant fusion protein; endogenous in cells; host or cells: HeLa cells stably expressing the NLS-GST-GFP-RevNES translocation biosensor (HeLaRevBio); settings: nuclear export inhibition IC50, HeLa cells expressing translocation biosensor, 1 h incubation
Chain of CRM1 (O14980 whole entry, the tested form may be a part): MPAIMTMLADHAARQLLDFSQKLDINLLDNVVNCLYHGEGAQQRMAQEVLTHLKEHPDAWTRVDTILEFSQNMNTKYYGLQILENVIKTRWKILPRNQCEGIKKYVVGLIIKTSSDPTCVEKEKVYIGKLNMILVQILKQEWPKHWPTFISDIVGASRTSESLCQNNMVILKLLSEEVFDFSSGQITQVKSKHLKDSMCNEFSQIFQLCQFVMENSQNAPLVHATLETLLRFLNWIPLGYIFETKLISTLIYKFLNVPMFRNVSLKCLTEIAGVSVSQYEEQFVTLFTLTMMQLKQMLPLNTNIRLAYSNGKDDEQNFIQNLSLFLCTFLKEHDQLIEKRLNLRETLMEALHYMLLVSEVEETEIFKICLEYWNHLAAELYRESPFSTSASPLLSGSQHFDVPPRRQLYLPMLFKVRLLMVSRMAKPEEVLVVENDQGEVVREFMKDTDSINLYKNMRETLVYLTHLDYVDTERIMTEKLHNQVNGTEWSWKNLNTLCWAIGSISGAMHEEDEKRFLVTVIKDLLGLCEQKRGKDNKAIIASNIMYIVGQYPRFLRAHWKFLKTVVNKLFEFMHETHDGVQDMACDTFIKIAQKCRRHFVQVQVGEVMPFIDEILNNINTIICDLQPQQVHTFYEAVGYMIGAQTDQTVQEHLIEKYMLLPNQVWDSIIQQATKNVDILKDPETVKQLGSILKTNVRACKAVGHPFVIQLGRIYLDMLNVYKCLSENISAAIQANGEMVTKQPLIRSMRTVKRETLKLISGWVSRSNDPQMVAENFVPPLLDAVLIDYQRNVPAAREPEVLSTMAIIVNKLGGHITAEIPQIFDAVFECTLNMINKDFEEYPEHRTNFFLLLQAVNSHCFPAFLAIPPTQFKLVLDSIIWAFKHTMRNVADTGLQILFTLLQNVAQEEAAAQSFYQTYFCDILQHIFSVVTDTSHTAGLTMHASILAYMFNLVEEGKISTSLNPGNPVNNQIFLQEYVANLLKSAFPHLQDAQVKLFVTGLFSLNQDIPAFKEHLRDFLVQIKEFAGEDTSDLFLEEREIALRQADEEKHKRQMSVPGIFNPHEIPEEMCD

L-929 = assay: Cell proliferation assay (MTT, 5 days); type: cell-based, murine
Protocol: (§1) Biological evaluation of the compounds […]
(§2) serial dilutions of the test compound were given to 120 µL of suspended cells (50.000/mL) in wells of 96-well plates. After 5 days of incubation growth inhibition (IC50) was determined using an MTT assay.9
(§3) Table S1:Medium conditions for different cell types.
(§4) Cell type Medium Additives
(§5) L-929 (DSMZ ACC 2) DME medium (high glucose) (Gibco) 10% fetal calf serum (Gibco) SKOV-3 DSMZ ATCC HTB Mc Coys-Medium (Gibco) 10% fetal calf serum (Gibco) […]
A549 (DSMZ ACC 107) DME medium (high glucose) (Gibco) 10% fetal calf serum (Gibco) KB 3.1 (DSMZ ACC 158) DME medium (high glucose) (Gibco) 10% fetal calf serum (Gibco) Ratjadone Compound Antiproliferative activity IC50 [nM]
KB-3.1: human cervix carcinoma, KB-V1: multi-drug-resistant human cervix carcinoma, K-562: human chronic myelogenous leukemia cell, PC-3: human prostate carcinoma, L-929: murine fibroblast
Figure S8: Structures of Ratjadone A-D and their antiproliferative activity (IC50 values in nM). Data published by Köster et al.10

A-549 = assay: cells; type: cell-based, human
Protocol: as §1, §2, §3, §4, §5
(§6) A549 (DSMZ ACC 107) DME medium (high glucose) (Gibco) 10% fetal calf serum (Gibco)

MCF-7 = assay: cells; type: cell-based, human
Protocol: as §1, §2, §3, §4, §5, §6

KB-3.1 = assay: cells; type: cell-based, human
Protocol: as §1, §2, §3, §4, §5, §6

SK-OV-3 = assay: cells; type: cell-based, human; settings: Homo sapiens, SK-OV-3, read-out: Antiproliferative activity IC50
Protocol: as §1, §2, §3, §4, §5, §6

KB-3.1 cancer cells = assay: Cell proliferation assay under folate free conditions (MTT); type: cell-based, human; settings: KB-3.1, folate receptor-positive, read-out: Antiproliferative activity IC50 of folate-ratjadone conjugates
Protocol: Cell proliferation assay under folate free conditions
KB 3.1 (DSMZ ACC 158) cells were cultivated at 37 °C and 10 % CO2 in RMPI-medium without folic acid (Gibco) with 10% fetal calf serum (Gibco). 120 µL of suspended cells (100.000/mL) were seeded in wells of 96-well plates and after 24 h at 37 °C and 10 % CO2 the medium was removed, the cells were washed with PBS and RPMI-medium without folic acid (Gibco) + 10% dialyzed fetal calf serum (Sigma) were added to the cells, before after additional 24 h at 37°C and 10 % CO2 60 µL of serial dilutions of the test compound were given to cells. After 1, 2 and 5 days of incubation growth inhibition (IC50) was determined using an […]

[1] = Mus musculus, L929, read-out: Antiproliferative activity IC50, L-929 murine fibroblast
[2] = read-out: Antiproliferative activity IC50, L-929 murine fibroblast
[3] = Homo sapiens, A549, read-out: Antiproliferative activity IC50, A-549 human lung carcinoma
[4] = Homo sapiens, MCF7, read-out: Antiproliferative activity IC50, MCF-7 human breast carcinoma
[5] = Homo sapiens, KB 3-1, read-out: Antiproliferative activity IC50, KB-3.1 human cervix carcinoma
[6] = L-929 murine fibroblast, read-out: Antiproliferative activity IC50
[7] = Mus musculus, L929, L-929 murine fibroblast, read-out: Antiproliferative activity IC50
[8] = KB 3-1, KB-3.1 human cervix carcinoma, read-out: Antiproliferative activity IC50

SMILES | IC50 (CRM1) | IC50 (L-929; [1]) | IC50 (A-549; [3]) | IC50 (MCF-7; [4]) | IC50 (KB-3.1; [5]) | IC50 (SK-OV-3) | other results
C/C=C/[C@@H]1O[C@H]([C@@H](N)/C=C/C=C(\C)C[C@@H](C)/C=C(C)\C=C\[C@H]2CC=CC(=O)O2)C[C@@H](O)[C@@H]1C [Compound 17, 16S-aminoratjadone] | 2.8 nM | 28.4 nM | 1.31 nM | 0.36 nM | 1.59 nM | 0.81 nM | IC50 (L-929; [2]): 28.4 nM
C#CCCC(=O)N[C@H](/C=C/C=C(\C)C[C@@H](C)/C=C(C)\C=C\[C@H]1CC=CC(=O)O1)[C@@H]1C[C@@H](O)[C@H](C)[C@H](/C=C/C)O1 [Compound 20] | 23.2 nM | – | 0.58 nM | 0.4 nM | 1.05 nM | 0.44 nM | –
C#CCCOC(=O)N[C@@H](/C=C/C=C(\C)C[C@@H](C)/C=C(C)\C=C\[C@H]1CC=CC(=O)O1)[C@@H]1C[C@@H](O)[C@H](C)[C@H](/C=C/C)O1 [Compound 22] | 12 nM | – | 2.45 nM | 0.62 nM | 1.23 nM | 1.2 nM | –
C/C=C/[C@@H]1O[C@H]([C@H](N)/C=C/C=C(\C)C[C@@H](C)/C=C(C)\C=C\[C@H]2CC=CC(=O)O2)C[C@@H](O)[C@@H]1C [Compound 16, 16R-aminoratjadone] | 2.7 nM | 4.61 nM | 0.31 nM | 0.26 nM | 0.39 nM | 0.61 nM | –
C#CCCOC(=O)N[C@H](/C=C/C=C(\C)C[C@@H](C)/C=C(C)\C=C\[C@H]1CC=CC(=O)O1)[C@@H]1C[C@@H](O)[C@H](C)[C@H](/C=C/C)O1 [Compound 21] | 46.1 nM | 4.5 nM | 1.25 nM | 0.27 nM | 0.47 nM | 0.45 nM | –
C/C=C/[C@@H]1O[C@H]([C@@H](/C=C/C=C(\C)C[C@@H](C)/C=C(C)\C=C\[C@H]2CC=CC(=O)O2)NC(=O)CCSSc2ccccn2)C[C@@H](O)[C@@H]1C [Compound 31, 2-PySS(CH2)2(CO)-16R-Aminoratjadone] | 44.1 nM | – | 30.6 nM | 26 nM | 8.8 nM | 24.6 nM | –
CC=CC1OC(C(C=CC=C(C)CC(C)C=C(C)C=CC2CC=CC(=O)O2)NC(=O)OCc2ccc(NC(=O)C(CCCNC(N)=O)NC(=O)C(NC(=O)OCC3C4CCC#CCCC43)C(C)C)cc2)CC(O)C1C (stereo not drawn) [Compound 25, BCN-O(CO)HN-Val-Cit-pABO(CO)-16R-Aminoratjadone] | 246 nM and 346 nM | – | 39.5 nM | 20.2 nM | 25.1 nM | 34.7 nM | IC50 (A-549; read-out: Antiproliferative activity IC50, A-549 human lung carcinoma): 39.5 nM; IC50 (MCF-7; read-out: Antiproliferative activity IC50, MCF-7 human breast carcinoma): 20.2 nM; IC50 (KB-3.1; read-out: Antiproliferative activity IC50, KB-3.1 human cervix carcinoma): 25.1 nM
C/C=C/[C@@H]1O[C@H](C(=O)/C=C/C=C(\C)C[C@@H](C)/C=C(C)\C=C\[C@H]2CC=CC(=O)O2)C[C@@H](O)[C@@H]1C [Compound 13, 16-oxoratjadone] | 52.5 nM | 12.6 nM | 1.76 nM | 0.22 nM | 2.57 nM | 0.24 nM | IC50 (L-929; [2]): 12.6 nM
C/C=C/[C@@H]1O[C@H]([C@H](O)/C=C/C=C(\C)C[C@@H](C)/C=C(C)\C=C\[C@H]2CC=CC(=O)O2)CC(=O)[C@@H]1C [Compound 14, 19-oxoratjadone] | 13.3 nM | 1.15 nM | 0.1 nM | 0.48 nM | 0.36 nM | 0.16 nM | –
C/C=C/[C@@H]1O[C@H]([C@@H](N)/C=C/C=C(\C)C[C@@H](C)/C=C(C)\C=C\[C@H](O)CC(N)CC(=O)OC)C[C@@H](O)[C@@H]1C (some centres unmarked) [Compound 19] | – | – | – | – | – | – | IC50 (L-929; [6]): 1320 nM; IC50 (L-929; [7]): 1320 nM; IC50 (KB-3.1; [8]): 165 nM
C#CCNC1C[C@@H]([C@H](O)/C=C/C=C(\C)C[C@@H](C)/C=C(C)\C=C\[C@H]2CC=CC(=O)O2)O[C@@H](/C=C/C)[C@H]1C (some centres unmarked) [Compound 35, N-Propargyl-19-aminoratjadone] | 18.3 nM | – | 1.12 nM | 1.31 nM | 1.23 nM | 2.63 nM | –
C/C=C/[C@@H]1O[C@H]([C@H](N)/C=C/C=C(\C)C[C@@H](C)/C=C(C)\C=C\[C@H](O)CC(N)CC(=O)OC)C[C@@H](O)[C@@H]1C (some centres unmarked) [Compound 18] | – | – | – | – | – | – | IC50 (L-929; [6]): 3310 nM; IC50 (L-929; [7]): 3310 nM; IC50 (KB-3.1; [8]): 116 nM
C/C=C/[C@@H]1O[C@H]([C@@H](/C=C/C=C(\C)C[C@@H](C)/C=C(C)\C=C\[C@H]2CC=CC(=O)O2)NC(=O)OCc2ccc(NC(=O)[C@H](CCCNC(N)=O)NC(=O)[C@@H](NC(=O)OC[C@@H]3[C@@H]4CCc5nnn(CCC[C@H](NC(=O)CC[C@H](NC(=O)c6ccc(NCc7cnc8nc(N)nc(O)c8n7)cc6)C(=O)O)C(=O)N[C@H](CCCCN)C(=O)O)c5CC[C@@H]43)C(C)C)cc2)C[C@@H](O)[C@@H]1C [FA-9-Val-Cit-pABA-16R-aminoratjadone] | – | – | – | – | – | – | IC50 (KB-3.1 cancer cells): 50.9 nM
C/C=C/[C@@H]1O[C@H]([C@@H](/C=C/C=C(\C)C[C@@H](C)/C=C(C)\C=C\[C@H]2CC=CC(=O)O2)NC(=O)OCc2ccc(NC(=O)[C@H](CCCNC(N)=O)NC(=O)[C@@H](NC(=O)OC[C@@H]3[C@@H]4CCc5nnn(-c6ccc(C(=O)NCCCC[C@H](NC(=O)CC[C@H](NC(=O)c7ccc(NCc8cnc9nc(N)nc(O)c9n8)cc7)C(=O)O)C(=O)N[C@H](CCCCN)C(=O)O)cc6)c5CC[C@@H]43)C(C)C)cc2)C[C@@H](O)[C@@H]1C [FA-8-Val-Cit-pABA-16R-aminoratjadone] | – | – | – | – | – | – | IC50 (KB-3.1 cancer cells): 39.9 nM
C/C=C/[C@@H]1O[C@H]([C@@H](/C=C/C=C(\C)C[C@@H](C)/C=C(C)\C=C\[C@H]2CC=CC(=O)O2)NC(=O)OCc2ccc(NC(=O)[C@H](CCCNC(N)=O)NC(=O)[C@@H](NC(=O)OC[C@@H]3[C@@H]4CCc5nnn(-c6ccc(C(=O)NCCCC[C@H](NC(=O)CC[C@H](NC(=O)CC[C@H](NC(=O)c7ccc(NCc8cnc9nc(N)nc(O)c9n8)cc7)C(=O)O)C(=O)O)C(=O)O)cc6)c5CC[C@@H]43)C(C)C)cc2)C[C@@H](O)[C@@H]1C [FA-6-Val-Cit-pABA-16R-aminoratjadone] | – | – | – | – | – | – | IC50 (KB-3.1 cancer cells; listed as FA-6-Val-Cit-pABA-16R-Aminoratjadone): 223 nM; IC50 (KB-3.1 cancer cells): 223 nM
C/C=C/[C@@H]1O[C@H](C(=O)/C=C/C=C(\C)C[C@@H](C)/C=C(C)\C=C\[C@H]2CC=CC(=O)O2)CC(=O)[C@@H]1C [Compound 15, 16,19-dioxoratjadone] | 17.5 nM | 24.3 nM | 9.72 nM | 2.87 nM | 3.98 nM | 1.59 nM | –
C/C=C/[C@@H]1O[C@H]([C@H](O)/C=C/C=C(\C)C[C@@H](C)/C=C(C)\C=C\[C@H]2CC=CC(=O)O2)CC(N)[C@@H]1C (some centres unmarked) [Compound 33, 19-aminoratjadone] | 70 nM | – | 4.39 nM | 2.1 nM | 6.67 nM | 1.4 nM | –
C/C=C/[C@@H]1O[C@H]([C@@H](/C=C/C=C(\C)C[C@@H](C)/C=C(C)\C=C\[C@H]2CC=CC(=O)O2)NC(=O)OCc2ccc(NC(=O)[C@H](CCCNC(N)=O)NC(=O)[C@@H](NC(=O)OCC3C4CCc5nnn(-c6ccc(C(=O)NCCCC[C@H](NC(=O)CC[C@H](NC(=O)CC[C@H](NC(=O)c7ccc(NCc8cnc9nc(N)[nH]c(=O)c9n8)cc7)C(=O)O)C(=O)O)C(=O)OC)cc6)c5CCC43)C(C)C)cc2)C[C@@H](O)[C@@H]1C (stereo partly drawn) [FA-1-Val-Cit-pABA-16R-aminoratjadone] | – | – | – | – | – | – | IC50 (KB-3.1 cancer cells; listed as FA-1-Val-Cit-pABA-16R-Aminoratjadone): 169 nM; IC50 (KB-3.1 cancer cells): 169 nM
